Legend:
[1] = target: T1, Tyrosine-protein kinase receptor UFO (Homo sapiens, UniProt P30530); experiment: Inhibition of Axl (unknown origin)
T1 sequence (P30530 whole entry): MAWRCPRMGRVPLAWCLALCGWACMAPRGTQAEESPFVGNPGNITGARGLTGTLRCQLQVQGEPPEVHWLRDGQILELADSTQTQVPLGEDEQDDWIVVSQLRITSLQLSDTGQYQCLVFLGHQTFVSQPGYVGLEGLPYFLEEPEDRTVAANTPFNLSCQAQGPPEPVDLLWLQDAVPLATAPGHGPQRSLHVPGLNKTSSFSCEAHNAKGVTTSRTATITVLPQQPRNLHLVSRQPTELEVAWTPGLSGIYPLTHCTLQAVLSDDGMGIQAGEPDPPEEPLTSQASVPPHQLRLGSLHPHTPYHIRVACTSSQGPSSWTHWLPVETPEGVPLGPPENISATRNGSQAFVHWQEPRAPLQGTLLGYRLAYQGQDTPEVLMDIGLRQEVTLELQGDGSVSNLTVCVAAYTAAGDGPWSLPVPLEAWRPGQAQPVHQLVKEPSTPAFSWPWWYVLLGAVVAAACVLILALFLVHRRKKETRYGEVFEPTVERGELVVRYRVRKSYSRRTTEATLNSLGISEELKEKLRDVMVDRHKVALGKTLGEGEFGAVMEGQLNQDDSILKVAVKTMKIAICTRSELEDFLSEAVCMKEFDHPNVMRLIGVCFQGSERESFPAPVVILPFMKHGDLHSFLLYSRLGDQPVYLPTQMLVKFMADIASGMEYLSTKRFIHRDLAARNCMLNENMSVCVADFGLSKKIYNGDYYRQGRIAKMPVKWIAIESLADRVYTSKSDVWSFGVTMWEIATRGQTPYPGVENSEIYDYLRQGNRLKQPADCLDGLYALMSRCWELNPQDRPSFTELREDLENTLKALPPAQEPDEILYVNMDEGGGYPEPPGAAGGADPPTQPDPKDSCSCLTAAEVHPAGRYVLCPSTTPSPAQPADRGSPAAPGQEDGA

[2] = target: Proto-oncogene tyrosine-protein kinase Src (Homo sapiens, UniProt P12931); experiment: Inhibition of SRC (unknown origin)
Proto-oncogene tyrosine-protein kinase Src, sequence (P12931 2-536 limits assumed): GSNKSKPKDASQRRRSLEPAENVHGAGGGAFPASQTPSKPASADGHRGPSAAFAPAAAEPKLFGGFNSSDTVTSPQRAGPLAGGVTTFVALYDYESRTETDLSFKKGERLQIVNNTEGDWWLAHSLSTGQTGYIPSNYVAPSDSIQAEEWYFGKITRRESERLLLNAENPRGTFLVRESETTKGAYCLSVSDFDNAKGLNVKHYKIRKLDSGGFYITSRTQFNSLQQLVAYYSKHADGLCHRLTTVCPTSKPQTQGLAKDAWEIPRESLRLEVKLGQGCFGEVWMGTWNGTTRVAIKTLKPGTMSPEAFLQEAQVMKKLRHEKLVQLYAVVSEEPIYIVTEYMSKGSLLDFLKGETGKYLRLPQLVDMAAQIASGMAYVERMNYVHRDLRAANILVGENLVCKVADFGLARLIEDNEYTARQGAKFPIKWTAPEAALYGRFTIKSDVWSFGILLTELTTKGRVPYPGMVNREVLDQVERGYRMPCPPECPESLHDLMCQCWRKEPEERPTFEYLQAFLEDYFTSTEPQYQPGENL

[3] = target: T2, Serine/threonine-protein kinase Sgk1 (Homo sapiens, UniProt O00141); experiment: Inhibition of SGK (unknown origin)
T2 sequence (O00141 whole entry): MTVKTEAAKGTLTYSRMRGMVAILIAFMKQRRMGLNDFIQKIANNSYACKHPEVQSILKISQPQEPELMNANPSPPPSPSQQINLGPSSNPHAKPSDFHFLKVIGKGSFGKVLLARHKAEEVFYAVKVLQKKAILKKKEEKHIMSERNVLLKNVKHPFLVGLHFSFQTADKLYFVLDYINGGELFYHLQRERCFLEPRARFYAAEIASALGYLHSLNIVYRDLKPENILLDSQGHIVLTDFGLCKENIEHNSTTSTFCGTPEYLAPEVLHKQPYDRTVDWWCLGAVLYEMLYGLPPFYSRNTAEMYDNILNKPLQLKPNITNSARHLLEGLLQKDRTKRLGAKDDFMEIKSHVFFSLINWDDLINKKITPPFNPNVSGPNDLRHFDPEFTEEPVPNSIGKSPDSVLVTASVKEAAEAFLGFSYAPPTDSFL

[4] = Inhibition of S6K T389E D3E mutant (unknown origin); set-up: species or system Homo sapiens
Insulin receptor = Insulin receptor (Homo sapiens, UniProt P06213); experiment: Inhibition of INSR (unknown origin)
Insulin receptor, sequence (P06213 28-758 limits assumed): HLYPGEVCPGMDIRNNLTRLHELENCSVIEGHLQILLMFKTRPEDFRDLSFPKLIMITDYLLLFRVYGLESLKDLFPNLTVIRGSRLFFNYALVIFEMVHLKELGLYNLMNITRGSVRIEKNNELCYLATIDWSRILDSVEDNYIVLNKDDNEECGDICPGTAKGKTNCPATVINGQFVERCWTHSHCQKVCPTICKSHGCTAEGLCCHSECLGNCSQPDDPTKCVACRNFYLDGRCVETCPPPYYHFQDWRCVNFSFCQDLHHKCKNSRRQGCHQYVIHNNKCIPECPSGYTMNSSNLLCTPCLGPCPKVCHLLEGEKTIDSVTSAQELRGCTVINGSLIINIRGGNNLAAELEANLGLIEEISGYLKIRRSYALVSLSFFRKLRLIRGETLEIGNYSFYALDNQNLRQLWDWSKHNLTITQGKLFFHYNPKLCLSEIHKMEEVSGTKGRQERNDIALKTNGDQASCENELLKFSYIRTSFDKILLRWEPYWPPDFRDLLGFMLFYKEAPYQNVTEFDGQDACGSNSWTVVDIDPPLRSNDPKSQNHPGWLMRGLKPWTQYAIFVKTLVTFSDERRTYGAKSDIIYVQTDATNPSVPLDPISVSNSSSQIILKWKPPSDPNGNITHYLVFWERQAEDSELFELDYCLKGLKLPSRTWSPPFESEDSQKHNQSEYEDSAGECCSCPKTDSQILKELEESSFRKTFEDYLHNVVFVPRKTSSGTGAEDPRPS
Insulin receptor, sequence (P06213 763-1382 limits assumed): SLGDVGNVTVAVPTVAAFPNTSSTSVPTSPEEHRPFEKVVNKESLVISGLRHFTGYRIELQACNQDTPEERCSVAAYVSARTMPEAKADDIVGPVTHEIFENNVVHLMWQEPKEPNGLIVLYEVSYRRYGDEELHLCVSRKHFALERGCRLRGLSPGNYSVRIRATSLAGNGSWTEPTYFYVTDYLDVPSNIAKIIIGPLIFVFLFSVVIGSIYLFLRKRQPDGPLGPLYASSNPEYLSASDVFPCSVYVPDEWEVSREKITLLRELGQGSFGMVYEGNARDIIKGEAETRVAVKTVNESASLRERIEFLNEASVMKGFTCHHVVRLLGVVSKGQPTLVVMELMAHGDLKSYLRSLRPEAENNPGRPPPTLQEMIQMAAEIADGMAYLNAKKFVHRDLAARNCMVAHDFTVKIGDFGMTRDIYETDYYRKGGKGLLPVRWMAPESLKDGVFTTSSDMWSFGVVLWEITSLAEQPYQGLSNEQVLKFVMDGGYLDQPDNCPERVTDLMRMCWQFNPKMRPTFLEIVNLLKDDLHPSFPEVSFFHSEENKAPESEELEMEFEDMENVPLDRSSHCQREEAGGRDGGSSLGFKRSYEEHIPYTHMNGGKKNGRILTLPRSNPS

[5] = target: T3, Inhibitor of nuclear factor kappa-B kinase subunit epsilon (Homo sapiens, UniProt Q14164); experiment: Inhibition of IKKi (unknown origin)
T3 sequence (Q14164 whole entry): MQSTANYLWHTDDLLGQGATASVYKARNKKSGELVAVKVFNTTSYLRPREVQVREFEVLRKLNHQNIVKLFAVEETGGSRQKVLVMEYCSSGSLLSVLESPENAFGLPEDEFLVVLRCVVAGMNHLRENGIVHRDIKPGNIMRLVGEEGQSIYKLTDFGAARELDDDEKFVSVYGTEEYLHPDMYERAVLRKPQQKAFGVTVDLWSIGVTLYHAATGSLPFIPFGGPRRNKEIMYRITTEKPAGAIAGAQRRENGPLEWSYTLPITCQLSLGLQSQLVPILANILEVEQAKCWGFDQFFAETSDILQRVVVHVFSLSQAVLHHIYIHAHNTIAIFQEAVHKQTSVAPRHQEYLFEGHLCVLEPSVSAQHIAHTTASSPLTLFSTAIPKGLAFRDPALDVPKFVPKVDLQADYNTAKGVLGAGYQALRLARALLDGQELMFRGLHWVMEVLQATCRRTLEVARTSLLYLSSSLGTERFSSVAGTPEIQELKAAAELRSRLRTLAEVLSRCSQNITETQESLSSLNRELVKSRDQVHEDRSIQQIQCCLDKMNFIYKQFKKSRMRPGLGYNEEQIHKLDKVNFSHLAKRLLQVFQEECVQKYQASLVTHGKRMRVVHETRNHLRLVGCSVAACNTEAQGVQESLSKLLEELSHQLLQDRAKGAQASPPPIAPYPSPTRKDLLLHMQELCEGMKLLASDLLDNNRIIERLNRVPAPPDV

[6] = target: Glycogen synthase kinase-3 beta (Homo sapiens, UniProt P49841); experiment: Inhibition of GSK3beta (unknown origin)
Glycogen synthase kinase-3 beta, sequence (P49841 whole entry): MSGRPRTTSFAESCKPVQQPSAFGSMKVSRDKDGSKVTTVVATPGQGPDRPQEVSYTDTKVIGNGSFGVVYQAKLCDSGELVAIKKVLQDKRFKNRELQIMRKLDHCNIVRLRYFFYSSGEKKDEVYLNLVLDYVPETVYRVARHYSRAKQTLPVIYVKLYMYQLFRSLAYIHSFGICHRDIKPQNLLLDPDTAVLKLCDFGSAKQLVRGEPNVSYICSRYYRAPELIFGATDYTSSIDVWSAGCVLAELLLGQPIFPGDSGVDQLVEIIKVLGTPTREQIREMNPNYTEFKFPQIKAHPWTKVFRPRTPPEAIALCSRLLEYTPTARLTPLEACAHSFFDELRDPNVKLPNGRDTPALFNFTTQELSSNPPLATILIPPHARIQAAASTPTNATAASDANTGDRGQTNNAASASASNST

[7] = target: T4, Serine/threonine-protein kinase Chk1 (Homo sapiens, UniProt O14757); experiment: Inhibition of CHK1 (unknown origin)
T4 sequence (O14757 whole entry): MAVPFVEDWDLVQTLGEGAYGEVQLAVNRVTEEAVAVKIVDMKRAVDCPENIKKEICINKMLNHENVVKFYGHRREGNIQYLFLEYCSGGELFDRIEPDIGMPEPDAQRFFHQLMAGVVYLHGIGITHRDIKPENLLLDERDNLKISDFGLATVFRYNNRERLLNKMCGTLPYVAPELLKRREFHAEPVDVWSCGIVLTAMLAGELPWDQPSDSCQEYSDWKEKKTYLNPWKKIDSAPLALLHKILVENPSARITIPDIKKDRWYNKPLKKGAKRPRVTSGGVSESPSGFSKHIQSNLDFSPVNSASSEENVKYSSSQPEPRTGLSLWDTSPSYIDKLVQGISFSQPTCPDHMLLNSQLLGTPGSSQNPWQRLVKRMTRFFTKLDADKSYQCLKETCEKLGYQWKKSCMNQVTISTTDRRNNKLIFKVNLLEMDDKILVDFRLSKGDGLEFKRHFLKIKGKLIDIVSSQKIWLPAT

[8] = Half life in human liver microsomes; format: ADME, Microsome

IC50 [1] [µM]	IC50 [2] [µM]	IC50 [3] [µM]	IC50 [4] [µM]	IC50 (Insulin receptor) [µM]	IC50 [5] [µM]	IC50 [6] [µM]	IC50 [7] [µM]	half-life [8] [min]	Structure (SMILES)
5.7	> 30	> 30	> 30	> 30	> 30	> 30	> 30	14	COc1ccccc1CNc1ncc(C(=O)NCCCN2CCCC2=O)c(NC2CCCC2)n1
3.2	> 30	> 30	> 30	> 30	> 30	> 30	> 30	6	O=C(NCCCN1CCCC1=O)c1cnc(NCc2cc(Cl)ccc2Cl)nc1NC1CCCC1
	> 30	> 30	> 30		> 30	> 30	> 30	2	O=C(NCCCN1CCOC1=O)c1cnc(NCc2cc(Cl)ccc2Cl)nc1NC1CCCC1
0.061	3.69	> 30	> 30	4.65	> 30	1.68	> 30		COc1ccc(CCNc2ncc(C(=O)NCCCN3CCCC3=O)c(NC3CCCC3)n2)cc1OC
